Converted amounts (≈) assume the structure as drawn.
Assays:
C. albicans ATCC MYA-573 = assay: Antifungal activity (GI80), growth inhibition in YPD20 medium by absorbance at 600 nm; format: cell-based; details: Candida albicans, minimum concentration for at least 80% cell growth inhibition, 37° C., absorbance 600 nm, read-out: GI80 (μg/ml) C. albicans ATCC MYA-573
Description: (§1) The antifungal activity of the compounds of the invention was determined according to the method mentioned below.
(§2) An YPD20 medium (1% yeast extract, 2% peptone, 20% glucose) was used,
(§3) (2) Preparation of Cell Liquid for Inoculation:
(§4) Cells incubated overnight with Sabouraud dextrose agar at 30° C. were suspended in 0.1% Tween 80-added saline, and then added to a concentrated medium (1.33% yeast extract, 2.67% peptone, 13.33% glucose) so that the final cell concentration could be 5×10^3 cells/ml, thereby preparing a cell liquid for inoculation.
(§5) (3) Production of Chemical Dilution Plate:
(§6) A metered sample was dissolved in dimethyl sulfoxide, and a 2-fold dilution series was prepared using dimethyl sulfoxide. A chemical dilution of 2 μl each was added to a flat-bottom 96-well plate with 40% glucose (48 μl) put in each well, thereby producing a chemical dilution plate.
(§7) (4) Inoculation and Cultivation of Cell Liquid:
(§8) The cell liquid (150 μl) prepared in (2) was added to the chemical dilution plate produced in (3), followed by aerobic static cultivation at 37° C.
(§9) (5) Determination of Antifungal Activity (GI80 Value):
(§10) After cultivation for […], the plate was stirred, and its absorbance (600 nm) was measured. Based on the absorbance as the index, the minimum chemical concentration for at least 80% cell growth inhibition relative to the cell growth in the chemical-free well was computed as a GI80 value.

C. glabrata ATCC48435 = assay: as above; format: cell-based; details: Nakaseomyces glabratus, ATCC48435, minimum concentration for at least 80% cell growth inhibition, 37° C., absorbance 600 nm, read-out: GI80 (μg/ml) C. glabrata ATCC48435
Description: as §1, §2, §3, §4, §5, §6, §7, §8, §9, §10

C. albicans ATCC90028 = assay: as above; format: cell-based; details: Candida albicans, ATCC90028, minimum concentration for at least 80% cell growth inhibition, 37° C., absorbance 600 nm, read-out: GI80 (μg/ml) C. albicans ATCC90028
Description: as §1, §2, §3, §4, §5, §6, §7, §8, §9, §10

Row | melting point | SMILES | IC80 (C. albicans ATCC MYA-573) [µg/mL] | IC80 (C. glabrata ATCC48435) [µg/mL] | IC80 (C. albicans ATCC90028) [µg/mL]
1 | 130 to 132 °C | Cc1c(-c2ccccc2)c(N2CC[C@H](N(C)C)C2)c2oc(C(C)(C)F)nc2c1C#N [Example 148, 7-[(3S)-3-(Dimethylamino)pyrrolidin-1-yl]-2-(1-fluoro-1-methylethyl)-5-methyl-6-phenyl-1,3-benzoxazole-4-carbonitrile] | 0.063 (≈ 0.155 µM) | < 0.016 | 0.032 (≈ 0.0787 µM)
2 | 167 to 168 °C | Cc1nc(-c2c(C)c(C#N)c3nc(C4CC4)oc3c2N2CC[C@H](N(C)C)C2)cs1 [Example 23, 2-Cyclopropyl-7-[(3S)-3-(dimethylamino)pyrrolidin-1-yl]-5-methyl-6-(2-methyl-1,3-thiazol-4-yl)-1,3-benzoxazole-4-carbonitrile] | 1 (≈ 2.45 µM) | 0.5 (≈ 1.23 µM) | 1 (≈ 2.45 µM)
3 | 175 to 178 °C | Cc1c(-c2ccccc2)c(N2CCC(N(C)C)C2)c2oc(C(C)(C)CO)nc2c1C#N (centres unmarked) [Example 14, 7-[3-(Dimethylamino)pyrrolidin-1-yl]-2-(2-hydroxy-1,1-dimethylethyl)-5-methyl-6-phenyl-1,3-benzoxazole-4-carbonitrile] | 0.25 (≈ 0.597 µM) | 0.125 (≈ 0.299 µM) | 0.25 (≈ 0.597 µM)
4 | 127 to 128 °C | Cc1c(-c2cccn2C)c(N2CC[C@H](N(C)C)C2)c2oc(C3CC3)nc2c1C#N [Example 22, 2-Cyclopropyl-7-[(3S)-3-(dimethylamino)pyrrolidin-1-yl]-5-methyl-6-(1-methyl-1H-pyrrol-2-yl)-1,3-benzoxazole-4-carbonitrile] | 1 (≈ 2.57 µM) | 0.5 (≈ 1.28 µM) | 0.5 (≈ 1.28 µM)
5 | 198 to 201 °C (dec.) | Cc1c(-c2ccccc2)c(N2CC[C@H](N(C)C)C2)c2oc(C(C)(C)C)nc2c1C#N.Cl [Example 1, 2-tert-Butyl-7-[(3S)-3-(dimethylamino)pyrrolidin-1-yl]-5-methyl-6-phenyl-1,3-benzoxazole-4-carbonitrile hydrochloride] | 0.063 | 0.032 | 0.063
6 | 237 to 240 °C (dec.) | CN[C@H]1CCN(c2c(-c3ccccc3)c(C)c(C#N)c3nc(C(C)(C)C)oc23)C1.Cl [Example 2, 2-tert-Butyl-5-methyl-7-[(3S)-3-(methylamino)pyrrolidin-1-yl]-6-phenyl-1,3-benzoxazole-4-carbonitrile hydrochloride] | 0.25 | 0.125 | 0.5
7 | 227 to 233 °C | Cc1c(-c2ccccc2)c(N2CC[C@H](N(C)C)C2)c2oc(-c3ccccn3)nc2c1C#N [Example 35, 7-[(3S)-3-(Dimethylamino)pyrrolidin-1-yl]-5-methyl-6-phenyl-2-(pyridin-2-yl)-1,3-benzoxazole-4-carbonitrile] | 0.25 (≈ 0.59 µM) | 0.032 (≈ 0.0756 µM) | 0.25 (≈ 0.59 µM)
8 | 191 to 194 °C | Cc1c(-c2ccccc2N)c(N2CC[C@H](N(C)C)C2)c2oc(C3CC3)nc2c1C#N [Example 144-13, 6-(2-Aminophenyl)-2-cyclopropyl-7-[(3S)-3-(dimethylamino)pyrrolidin-1-yl]-5-methyl-1,3-benzoxazole-4-carbonitrile] | 1 (≈ 2.49 µM) | 0.5 (≈ 1.25 µM) | 1 (≈ 2.49 µM)
9 | 48 to 51 °C | Cc1c(-c2ccccc2)c(N2CC[C@H](N(C)C)C2)c2oc(N3CC(CO)C3)nc2c1C#N [Example 98, 7-[(3S)-3-(Dimethylamino)pyrrolidin-1-yl]-2-[3-(hydroxymethyl)azetidin-1-yl]-5-methyl-6-phenyl-1,3-benzoxazole-4-carbonitrile] | 0.5 (≈ 1.16 µM) | 0.125 (≈ 0.29 µM) | 0.5 (≈ 1.16 µM)
10 | 139 to 142 °C | Cc1c(-c2ccccc2)c(N2CC[C@H](N(C)C)C2)c2oc(C(=O)N(C)C)nc2c1C#N [Example 40, 4-Cyano-7-[(3S)-3-(dimethylamino)pyrrolidin-1-yl]-N,N,5-trimethyl-6-phenyl-1,3-benzoxazole-2-carboxamide] | 0.063 (≈ 0.151 µM) | 0.016 (≈ 0.0383 µM) | 0.063 (≈ 0.151 µM)
11 | 172 to 174 °C | CN[C@@]1(C)CCN(c2c(-c3ccccc3)c(C)c(C#N)c3nc(C(=O)N(C)C)oc23)C1 [Example 159, 4-Cyano-N,N,5-trimethyl-7-[(3S)-3-methyl-3-(methylamino)pyrrolidin-1-yl]-6-phenyl-1,3-benzoxazole-2-carboxamide] | 0.063 (≈ 0.151 µM) | < 0.016 | 0.063 (≈ 0.151 µM)
12 | 148 to 151 °C | CN[C@H]1CCN(c2c(-c3ccccc3)c(C)c(C#N)c3nc(C(=O)N(C)C)oc23)C1 [Example 40-1, 4-Cyano-N,N,5-trimethyl-7-[(3S)-3-(methylamino)pyrrolidin-1-yl]-6-phenyl-1,3-benzoxazole-2-carboxamide] | 0.25 (≈ 0.62 µM) | 0.032 (≈ 0.0793 µM) | 0.25 (≈ 0.62 µM)
13 | 153 to 156 °C | Cc1nc(-c2c(C)c(C#N)c3nc(C(=O)N(C)C)oc3c2N2CC[C@H](N(C)C)C2)cs1 [Example 51, 4-Cyano-7-[(3S)-3-(dimethylamino)pyrrolidin-1-yl]-N,N,5-trimethyl-6-(2-methyl-1,3-thiazol-4-yl)-1,3-benzoxazole-2-carboxamide] | 1 (≈ 2.28 µM) | 0.25 (≈ 0.57 µM) | 1 (≈ 2.28 µM)
14 | 215 to 217 °C | Cc1c(-c2ccccc2)c(N2CC[C@H](N(C)C)C2)c2oc(N3CCOCC3)nc2c1C#N [Example 130, 7-[(3S)-3-(Dimethylamino)pyrrolidin-1-yl]-5-methyl-2-morpholin-4-yl-6-phenyl-1,3-benzoxazole-4-carbonitrile] | – | – | –
15 | 202 to 204 °C | Cc1c(-c2ccccc2)c(N2CC[C@](C)(N)C2)c2oc(C(=O)N(C)C)nc2c1C#N [Example 160, 7-[(3S)-3-Amino-3-methylpyrrolidin-1-yl]-4-cyano-N,N,5-trimethyl-6-phenyl-1,3-benzoxazole-2-carboxamide] | – | – | –
16 | 214 to 216 °C | CNC(=O)c1nc2c(C#N)c(C)c(-c3ccccc3)c(N3CC[C@H](N(C)C)C3)c2o1 [Example 39, 4-Cyano-7-[(3S)-3-(dimethylamino)pyrrolidin-1-yl]-N,5-dimethyl-6-phenyl-1,3-benzoxazole-2-carboxamide] | – | – | –
17 | 82 to 86 °C | Cc1c(Br)c(N2CC[C@H](N(C)C)C2)c2oc(C3CC3)nc2c1C#N | – | – | –
18 | 150 to 151 °C | Cc1c(-c2ccccn2)c(N2CC[C@H](N(C)C)C2)c2oc(C3CC3)nc2c1C#N [Example 20, 2-Cyclopropyl-7-[(3S)-3-(dimethylamino)pyrrolidin-1-yl]-5-methyl-6-(pyridin-2-yl)-1,3-benzoxazole-4-carbonitrile] | – | – | –
19 | 159 to 162 °C | Cc1c(-c2ccccc2)c(N2CC[C@H](N(C)C)C2)c2oc(-c3ccccc3O)nc2c1C#N [Example 110, 7-[(3S)-3-(Dimethylamino)pyrrolidin-1-yl]-2-(2-hydroxyphenyl)-5-methyl-6-phenyl-1,3-benzoxazole-4-carbonitrile] | – | – | –
20 | 167 to 169 °C | Cc1c(-c2ccccc2)c(N2CC[C@H](N(C)C)C2)c2oc(N3CC(C)(O)C3)nc2c1C#N [Example 99, 7-[(3S)-3-(Dimethylamino)-1-pyrrolidinyl]-2-(3-hydroxy-3-methylazetidin-1-yl)-5-methyl-6-phenyl-1,3-benzoxazole-4-carbonitrile] | – | – | –

From patent US7737166B2, “Antifungal bicyclic hetero ring compounds” (Daiichi Sankyo Company, Limited, priority 2005, dated 2010)
